# Results from PubChem BioAssay (NCI).
#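 Cultured in 96-well plates, cells were exposed to test compound for 48 hours across five concentrations. Here, GI50 denotes the concentration required for 50% inhibition of growth. TGI is the concentration that stops growth completely.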
# Key:
# Experiment in all cases: NCI tumour cell line growth inhibition, 48 h
# [1] = test system: COLO 205 colon
# [2] = test system: DU-145 prostate
# [3] = test system: HOP-62 NSCLC
# [4] = test system: HT29 colon
# [5] = test system: MDA-MB-435
# [6] = test system: NCI-H23 lung
# [7] = test system: NCI-H460 lung
# [8] = test system: NCI/ADR-RES ovarian
# [9] = test system: SF-268 CNS
# [10] = test system: SK-OV-3 ovarian
Compound,GI50 [1] [µM],TGI [1] [µM],GI50 [2] [µM],TGI [2] [µM],GI50 [3] [µM],TGI [3] [µM],GI50 [4] [µM],TGI [4] [µM],GI50 [5] [µM],TGI [5] [µM],GI50 [6] [µM],TGI [6] [µM],GI50 [7] [nM],TGI [7] [µM],GI50 [8] [µM],TGI [8] [µM],GI50 [9] [µM],TGI [9] [µM],GI50 [10] [µM],TGI [10] [µM]
CCC1OC(/C(C)=C/C(C)/C=C/C2C(C)C2/C=C/C2OC(CC(=O)O)CC(O)C2O)CC=C1C (stereo not given),> 50,> 50,> 50,> 50,> 50,> 50,> 50,> 50,> 50,> 50,> 50,> 50,> 50000,> 50,14.4,> 50,> 50,> 50,> 50,> 50
Cc1cc(S(=O)(=O)Nc2nc3cc(-c4ccsc4)sc3c(=O)n2N)c(S)cc1Cl,> 100,> 100,> 100,> 100,50,> 100,30.4,> 100,85.3,> 100,> 100,> 100,31400,> 100,50.6,> 100,35.7,> 100,88.6,> 100
C#CCOc1cccc(Nc2ncc3ncn(C4CCN(C(=O)CCl)C4)c3n2)c1 (stereo not given),> 62.5,> 62.5,> 62.5,> 62.5,> 62.5,> 62.5,> 62.5,> 62.5,> 62.5,> 62.5,> 62.5,> 62.5,> 62500,> 62.5,> 62.5,> 62.5,> 62.5,> 62.5,> 62.5,> 62.5
Cc1cc(O)c2c(c1)C(=O)C(c1c(C)cc3c(c1O)C(=O)C1OC1C3=O)=CC2=O (stereo not given),–,–,–,> 47.3,–,26.3,–,11.7,–,7.71,–,22.8,–,25.8,–,> 23.1,–,26.2,–,38.7
COC(=O)c1nn(C(=N)c2ccc(Cl)cc2)c2c1CCCCC2,–,> 100,–,–,–,> 100,–,> 100,–,–,–,> 100,–,> 100,–,–,–,> 100,–,> 100
CCOC(=O)/C(C#N)=C(N)/C(=N\Nc1cccc(C(F)(F)F)c1)C(=O)OCC,–,> 100,–,–,–,> 100,–,> 100,–,–,–,> 100,–,–,–,–,–,> 100,–,> 100
CCC(=O)OC1=CN2C(=NC(c3ccc(N)cc3)=CC2c2cc(OC)c(OC)c(OC)c2)S1 (stereo not given),3.72,10.7,3.58,13.1,4.79,15.1,3.82,14.2,2.98,14.1,5.82,35.6,2610,8.52,3.73,> 100,3.57,14.4,3.45,13
O=c1cccccc1NCCNc1cccccc1=O,–,> 100,–,–,–,> 100,–,> 100,–,–,–,> 100,–,> 100,–,–,–,> 100,–,> 100
O=C(Nc1cccc([N+](=O)[O-])c1)c1cc2ccccc2cc1O,1.88,3.44,3.09,> 49.6,1.19,3.72,3.09,> 30.7,1.5,5.41,0.72,3.65,1870,> 100,1.76,6.54,2.98,> 100,1.84,6.07
CNC(C)Cc1ccc(O)cc1 (stereo not given),–,> 100,–,–,–,> 100,–,> 100,–,–,–,> 100,–,> 100,–,–,–,> 100,–,> 100
N[C@H](C(=O)O)[C@@H](Cl)CC(=O)O,–,> 100,–,–,–,> 100,–,> 100,–,–,–,> 100,–,> 100,–,–,–,> 100,–,> 100
COc1cc(CNC(=O)CCSc2nc3ccccc3c(=O)n2Cc2cc(OC)c(OC)c(OC)c2)cc(OC)c1OC,5.32,23.2,7.27,> 100,4.36,28.7,–,–,–,–,6.87,> 100,4190,27.5,3.59,30.9,7.13,> 100,5.34,18.6
[N-]=[N+]=Nc1c(Br)c(=O)[nH]c(=O)n1COCCO,–,> 100,–,–,–,> 100,–,> 100,–,–,–,> 100,–,> 100,–,–,–,> 100,–,–
Cc1ccc(/C=C2\CN(Cc3cn(CCNc4ccnc5cc(Cl)ccc45)nn3)C/C(=C\c3ccc(C)cc3)C2=O)cc1,1.89,3.42,1.76,3.17,1.96,3.47,1.91,3.85,1.66,3.1,–,–,1540,3.38,2.32,5.14,2.04,4.2,1.9,3.57
C/C=C/C(=O)[O-].N.N.N.N.N.[Co+3].[O-][Cl+3]([O-])([O-])[O-],> 100,> 100,–,–,> 100,> 100,> 100,> 100,–,–,> 100,> 100,> 100000,> 100,–,–,> 100,> 100,> 100,> 100
COc1cc2c3c(c1OC)Oc1ccc(cc1)CC1c4c(cc(OC)c(OC)c4Oc4ccc(cc4)CC3N(C)CC2)CCN1C (stereo not given),–,26.4,–,–,–,61.4,–,35.2,–,–,–,> 100,–,37.1,–,–,–,64.5,–,84.1
O=C1C2=C(c3ccccc31)C(c1ccc(Cl)cc1)NC(=S)N2 (stereo not given),–,64.9,–,–,–,> 100,–,90.7,–,–,–,40.5,–,> 100,–,–,–,40.1,–,> 100
COc1cc(/C=C\c2cc(OC)c(OC)c(OC)c2)cc(NS(=O)(=O)c2cccc(Cl)c2)c1OC,0.261,0.851,0.0676,> 100,3.16,> 100,0.0441,> 100,–,–,0.386,> 100,36.2,> 100,–,–,0.202,> 100,1.15,> 100
COC(=O)/C(=N/O)C(C(=O)OC)C(=O)C(=O)Nc1c(Cl)cc(C)cc1S(=O)(=O)O (stereo not given),–,> 100,–,–,–,> 100,–,> 100,–,–,–,> 100,–,> 100,–,–,–,> 100,–,> 100
Cc1ccc(C)c2c1CCc1cc3ccccc3nc1-2,–,> 100,–,–,–,> 100,–,> 100,–,–,–,> 100,–,> 100,–,–,–,> 100,–,> 100

Compound,GI50 [1] [µM],TGI [1] [µM],GI50 [2] [µM],TGI [2] [µM],GI50 [3] [µM],TGI [3] [µM],GI50 [4] [µM],TGI [4] [µM],GI50 [5] [µM],TGI [5] [µM],GI50 [6] [µM],TGI [6] [µM],GI50 [7] [nM],TGI [7] [µM],GI50 [8] [µM],TGI [8] [µM],GI50 [9] [µM],TGI [9] [µM],GI50 [10] [µM],TGI [10] [µM]
Cc1cccc(O)c(=O)c1,–,37.8,–,–,–,> 100,–,> 100,–,–,–,–,–,> 100,–,–,–,> 100,–,> 100
CC1(C)N=C(N)N=C(N)N1c1ccc(OCCCCNC(=O)c2ccc(S(=O)(=O)F)cc2)c(Cl)c1,68.4,> 100,8.16,> 100,68.3,> 100,4.19,> 100,4.87,> 100,–,–,2100,> 100,> 100,> 100,6.21,> 100,> 100,> 100
O=C(Nc1ccccc1C(=O)O)C(=O)C(C(=O)c1ccccc1-c1ccccc1)C1OC(=O)c2ccccc21 (stereo not given),–,47.5,–,–,–,37.8,–,65.9,–,–,–,40.5,–,32.7,–,–,–,39.5,–,94
O=C1C2=C(c3ccccc31)C(c1ccc(F)cc1)N1C(=O)CCSC1=N2 (stereo not given),–,> 100,–,–,–,> 100,–,> 100,–,–,–,> 100,–,> 100,–,–,–,> 100,–,> 100
N=C1C(c2nc(-c3ccc(Br)cc3)cs2)=C(O)CN1CC1CCCO1 (stereo not given),> 100,> 100,–,–,> 100,> 100,> 100,> 100,> 100,> 100,> 100,> 100,–,–,> 100,> 100,> 100,> 100,> 100,> 100
COC(=O)C12C3C4C1C1C2C3C41C(=O)N(C(C)C)C(C)C (stereo not given),–,> 100,–,–,–,> 100,–,> 100,–,–,–,> 100,–,> 100,–,–,–,> 100,–,> 100
C[C@H]1CCC/C=C/[C@@H]2C[C@H](O)C[C@H]2[C@H](O)[C@@H](SC2OC(CO)C(O)C(O)C2O)CC(=O)O1 (stereo not given in full),19.4,41.6,> 100,> 100,98.9,> 100,23,58.8,69.8,> 100,47.9,> 100,–,–,43.3,> 100,–,–,> 100,> 100
O=C(O)c1oc2cccc3c2c1CCC3,–,> 100,–,–,–,> 100,–,> 100,–,–,–,> 100,–,> 100,–,–,–,> 100,–,> 100
CC(=O)OCC(OC(C)=O)C(OC(C)=O)C(OC(C)=O)C(=O)CNn1c(-c2ccccc2Cl)nc2ccc(Br)cc2c1=O (stereo not given),–,> 100,–,–,–,> 100,–,> 100,–,–,–,> 100,–,> 100,–,–,–,> 100,–,> 100
Cc1cc(Cl)ccc1NC(=O)CCCC(=O)C(C(=O)c1ccccc1)c1ccccc1 (stereo not given),–,> 100,–,–,–,> 100,–,> 100,–,–,–,> 100,–,> 100,–,–,–,> 100,–,> 100
CC(=O)Nc1cc2cc(NS(=O)(=O)c3cc(C(F)(F)F)cc(C(F)(F)F)c3)ccc2oc1=O,–,> 100,–,> 100,–,> 100,–,> 100,–,> 100,–,> 100,–,> 100,–,> 100,–,> 100,–,–
CCCCN(CCCC)C(=O)C(=O)CC(=O)/C=C/c1ccccc1,–,> 100,–,–,–,> 100,–,> 100,–,–,–,> 100,–,> 100,–,–,–,> 100,–,> 100
O=C(O)Cc1cc(=O)[nH]c2c1C(=O)CCC2,–,> 100,–,–,–,–,–,> 100,–,–,–,> 100,–,> 100,–,–,–,> 100,–,> 100
CC1=NN(C(=O)c2cc(Cl)cc([N+](=O)[O-])c2)C(=O)C1N=Nc1ccccc1C(=O)O (stereo not given),–,> 100,–,–,–,–,–,> 100,–,–,–,> 100,–,> 100,–,–,–,> 100,–,> 100
CCC1(CC)C(=O)[N-]C(=O)[N-]C1=O.[Au+].[Au+].c1ccc([PH+](c2ccccc2)c2ccccc2)cc1.c1ccc([PH+](c2ccccc2)c2ccccc2)cc1,1.74,3.36,–,–,–,–,–,–,–,–,–,–,1990,4.69,–,–,–,–,1.73,3.11
COC(=O)C1=C(c2cc(OC)c(OC)c(OC)c2)O[C@H](c2ccc3c(c2)OCO3)[C@H]1COC(C)=O,–,26.3,–,–,–,> 100,–,95.7,–,–,–,57.1,–,> 100,–,–,–,–,–,52.1
CC(=O)O[C@H](C[C@H](C(C)C)N(C)C(=O)[C@@H](NC(=O)[C@H]1CCCCN1C)C(C)(C)C)c1nc(C(=O)N[C@@H](Cc2ccccc2)C[C@H](C)C(=O)O)cs1,< 0.0025,0.0053,< 0.0025,–,< 0.0025,> 25,< 0.0025,> 25,–,–,< 0.0025,> 25,< 2.5,> 25,0.00524,> 25,0.00432,> 25,< 0.0025,> 25
COc1cc(C(=O)C/C(CCC(=O)Nc2ccc(Cl)cc2Cl)=N/Nc2nnc(C)n2N)ccc1O,–,> 100,–,–,–,> 100,–,> 100,–,–,–,> 100,–,> 100,–,–,–,> 100,–,> 100
Cc1ccc(SCC(O)=C2C(=O)CCCC2=O)cc1,–,> 100,–,–,–,> 100,–,> 100,–,–,–,> 100,–,> 100,–,–,–,> 100,–,> 100
